Reference: patent US4462819A, “Urease inhibited urea based fertilizer compositions containing organo boron acid compounds” (Allied Corporation, priority 1983, dated 1984)

Columns and labels:
[1] = tested on: urease; assay: Evaluation of urease inhibiting activity in soil, Test B (test compound incubated in soil 3 days before urea was added); format: biochemical; design: key: A=excellent inhibition; B=partial inhibition; C=no inhibition; conditions: 800 μg test compound incubated in 20 g soil (Cazenovia sandy loam pH 7.2) for 3 days before urea was added; analysis 3 days after urea addition; relative to control without test compound
[2] = tested on: urease; assay: Evaluation of urease inhibiting activity in soil, Test A (test compound and urea applied together); format: biochemical; design: key: A=excellent inhibition; B=partial inhibition; C=no inhibition; conditions: 800 μg test compound and 42.8 mg urea in 20 g air-dry soil (Cazenovia sandy loam pH 7.2), 25° C., 3 days; remaining urea, relative to control without test compound
Experimental: Certain selected organo boron acid compounds were evaluated for urease inhibiting activity. The tests were run in a New York soil (Cazenovia sandy loam pH 7.2). Test A evaluations (run in triplicate) consisted of applying 800 μg of test compound in 5 mL water and 42.8 mg urea in 1 mL water to 20 g air-dry soil in a glass bottle. The bottle was capped with perforated aluminum foil and incubated at 25° C. for 3 days prior to extraction with a 100 mL 2M KCL solution containing 0.5 mg phenylmercuric acetate. The extracts were then analyzed for remaining urea using an autoanalyzer.

| Compound | % INHIBITION (TEST B) [1] | % INHIBITION (TEST A) [2] |
| --- | --- | --- |
| Cl.ONc1ccccc1B(O)O [XIII, 2-Hydroxylaminobenzeneboronic Acid Hydrochloride] | A | C |
| Cl.ONc1cccc(B(O)O)c1 [XIV, 3-Hydroxylaminobenzeneboronic Acid Hydrochloride] | B | B |
| NC(=O)Nc1cccc(B(O)O)c1 [XVI, 3-Ureidophenylboric Acid] | B | C |
| OB1ON=Cc2ccccc21 [XVIII, 4-Hydroxy-4,3-boroxaroisoquinoline] | B | B |
| OB1OCc2ccccc21 [XVII, Borphthalide] | A | C |
| Nc1ccc(B(O)O)cc1 [XII, 4-Aminobenzeneboronic Acid] | A | B |
| OB(O)c1cccc(O)c1 [XIX, 3-Hydroxybenzeneboronic Acid] | A | B |
| Cl.ONc1ccc(B(O)O)cc1 [XV, 4-Hydroxylaminobenzeneboronic Acid Hydrochloride] | A | A |
| Nc1ccccc1B(O)O [X, 2-Aminobenzeneboronic Acid] | A | C |
